Like-named read-outs stand apart in the source and are kept apart here.
Test system: K. pneumoniae NVT1001 strains with ESBL or AmpC β-lactamase plasmids
Assay: Etest MIC of β-lactams, OmpK35/36 loss, ΔramR and/or extended-spectrum β-lactamase and AmpC β-lactamase (Table 8)
Assay type: cell-based, Klebsiella pneumoniae
Conditions: for MIC: Klebsiella pneumoniae
Description: DNA fragments of the resistance genes along with their flanking regions were amplified from clinical plasmids via PCR with specific primer pairs. The resulting PCR fragments were digested and then cloned into the plasmid pACYC177 or pACYC184. The resulting plasmids were then transformed into K. pneumoniae strain NVT1001 via electroporation. The recombinant bacteria were plated onto LB agar plates containing kanamycin (50 mg/L) or chloramphenicol (50 mg/L), and the presence of the cloned gene was confirmed via PCR and DNA sequencing.
The MICs of antibiotics were determined using the Etest (Biodisk AB, Sweden) according to the manufacturer's instructions. The MICs from the Etest, which fall between standard two-fold dilutions, were rounded up to the next highest two-fold value. The MICs of ceftazidime and cefotaxime against K. pneumoniae NVT1001 harbouring the pACYC177 plasmid with blaOXA-48 were further determined using a broth microdilution test according to the recommendations of the CLSI,^25 and the results were interpreted according to the breakpoints established by the CLSI in 2017.^25 Meanwhile, due to the lack of CLSI breakpoints in 2016 and 2017, the results for cephalothin were interpreted according to the breakpoints established by the CLSI in 2015,^26 and the results for moxifloxacin were interpreted according to the breakpoints established by the EUCAST in 2017.^27

[1] = CMY-2 on pACYC177, WT (NVT1001), read-out: MIC
[2] = CMY-2 on pACYC177, Δ35 (ΔompK35 mutant)
[3] = CMY-2 on pACYC177, Δ35/36 (ΔompK35/36 mutant)
[4] = CMY-2 on pACYC177, Δ36 (ΔompK36 mutant)
[5] = CMY-2 on pACYC177, ΔramR mutant
[6] = CMY-2 on pACYC177, ΔramRΔ35 (ΔramRΔompK35 mutant)
[7] = CMY-2 on pACYC177, ΔramRΔ35/36 (ΔramRΔompK35/36 mutant)
[8] = CMY-2 on pACYC177, ΔramRΔ36 (ΔramRΔompK36 mutant)
[9] = CTX-M-14 on pACYC177, WT (NVT1001), read-out: MIC
[10] = CTX-M-14 on pACYC177, Δ35 (ΔompK35 mutant)
[11] = CTX-M-14 on pACYC177, Δ35/36 (ΔompK35/36 mutant)
[12] = CTX-M-14 on pACYC177, Δ36 (ΔompK36 mutant)
[13] = CTX-M-14 on pACYC177, ΔramR mutant
[14] = CTX-M-14 on pACYC177, ΔramRΔ35 (ΔramRΔompK35 mutant)
[15] = CTX-M-14 on pACYC177, ΔramRΔ35/36 (ΔramRΔompK35/36 mutant)
[16] = CTX-M-14 on pACYC177, ΔramRΔ36 (ΔramRΔompK36 mutant)
[17] = CTX-M-15 on pACYC177, WT (NVT1001), read-out: MIC
[18] = CTX-M-15 on pACYC177, Δ35 (ΔompK35 mutant)
[19] = CTX-M-15 on pACYC177, Δ35/36 (ΔompK35/36 mutant)
[20] = CTX-M-15 on pACYC177, Δ36 (ΔompK36 mutant)
[21] = CTX-M-15 on pACYC177, ΔramR mutant
[22] = CTX-M-15 on pACYC177, ΔramRΔ35 (ΔramRΔompK35 mutant)
[23] = CTX-M-15 on pACYC177, ΔramRΔ35/36 (ΔramRΔompK35/36 mutant)
[24] = CTX-M-15 on pACYC177, ΔramRΔ36 (ΔramRΔompK36 mutant)
[25] = DHA-1-AmpR on pACYC177, WT (NVT1001), read-out: MIC
[26] = DHA-1-AmpR on pACYC177, Δ35 (ΔompK35 mutant)
[27] = DHA-1-AmpR on pACYC177, Δ35/36 (ΔompK35/36 mutant)
[28] = DHA-1-AmpR on pACYC177, Δ36 (ΔompK36 mutant)
[29] = DHA-1-AmpR on pACYC177, ΔramR mutant
[30] = DHA-1-AmpR on pACYC177, ΔramRΔ35 (ΔramRΔompK35 mutant)
[31] = DHA-1-AmpR on pACYC177, ΔramRΔ35/36 (ΔramRΔompK35/36 mutant)
[32] = DHA-1-AmpR on pACYC177, ΔramRΔ36 (ΔramRΔompK36 mutant)
[33] = SHV-12 on pACYC177, WT (NVT1001), read-out: MIC
[34] = SHV-12 on pACYC177, Δ35 (ΔompK35 mutant)
[35] = SHV-12 on pACYC177, Δ35/36 (ΔompK35/36 mutant)
[36] = SHV-12 on pACYC177, Δ36 (ΔompK36 mutant)
[37] = SHV-12 on pACYC177, ΔramR mutant
[38] = SHV-12 on pACYC177, ΔramRΔ35 (ΔramRΔompK35 mutant)
[39] = SHV-12 on pACYC177, ΔramRΔ35/36 (ΔramRΔompK35/36 mutant)
[40] = SHV-12 on pACYC177, ΔramRΔ36 (ΔramRΔompK36 mutant)
[41] = no supplemental plasmid, WT (NVT1001), read-out: MIC
[42] = no supplemental plasmid, Δ35 (ΔompK35 mutant)
[43] = no supplemental plasmid, Δ35/36 (ΔompK35/36 mutant)
[44] = no supplemental plasmid, Δ36 (ΔompK36 mutant)
[45] = no supplemental plasmid, ΔramR mutant
[46] = no supplemental plasmid, ΔramRΔ35 (ΔramRΔompK35 mutant)
[47] = no supplemental plasmid, ΔramRΔ35/36 (ΔramRΔompK35/36 mutant)
[48] = no supplemental plasmid, ΔramRΔ36 (ΔramRΔompK36 mutant)

## C[C@H]1[C@H](NC(=O)/C(=N\OC(C)(C)C(=O)O)c2csc(N)n2)C(=O)N1S(=O)(=O)O [Aztreonam]
[1]
  MIC: 64 µg/mL
[2]
  MIC: 128 µg/mL
[3]
  MIC: 256 µg/mL
[4]
  MIC: 64 µg/mL
[5]
  MIC: 64 µg/mL
[6]
  MIC: 64 µg/mL
[7]
  MIC: 64 µg/mL
[8]
  MIC: 64 µg/mL
[9]
  MIC: 2 µg/mL
[10]
  MIC: 16 µg/mL
[11]
  MIC: 32 µg/mL
[12]
  MIC: 2 µg/mL
[13]
  MIC: 16 µg/mL
[14]
  MIC: 16 µg/mL
[15]
  MIC: 32 µg/mL
[16]
  MIC: 16 µg/mL
[17]
  MIC: 256 µg/mL
[18]
  MIC: > 256 µg/mL
[19]
  MIC: > 256 µg/mL
[20]
  MIC: > 256 µg/mL
[21]
  MIC: > 256 µg/mL
[22]
  MIC: > 256 µg/mL
[23]
  MIC: > 256 µg/mL
[24]
  MIC: > 256 µg/mL
[25]
  MIC: 1 µg/mL
[26]
  MIC: 8 µg/mL
[27]
  MIC: 16 µg/mL
[28]
  MIC: 1 µg/mL
[29]
  MIC: 4 µg/mL
[30]
  MIC: 4 µg/mL
[31]
  MIC: 8 µg/mL
[32]
  MIC: 8 µg/mL
[33]
  MIC: 128 µg/mL
[34]
  MIC: > 256 µg/mL
[35]
  MIC: > 256 µg/mL
[36]
  MIC: 128 µg/mL
[37]
  MIC: > 256 µg/mL
[38]
  MIC: > 256 µg/mL
[39]
  MIC: > 256 µg/mL
[40]
  MIC: > 256 µg/mL
[41]
  MIC: 0.03 µg/mL
[42]
  MIC: 0.25 µg/mL
[43]
  MIC: 0.5 µg/mL
[44]
  MIC: 0.06 µg/mL
[45]
  MIC: 0.5 µg/mL
[46]
  MIC: 0.5 µg/mL
[47]
  MIC: 1 µg/mL
[48]
  MIC: 1 µg/mL

## C[C@@H](O)[C@H]1C(=O)N2C(C(=O)O)=C(S[C@@H]3CN[C@H](C(=O)N(C)C)C3)[C@H](C)[C@H]12 [Meropenem]
[1]
  MIC: 0.25 µg/mL
[2]
  MIC: 0.25 µg/mL
[3]
  MIC: 16 µg/mL
[4]
  MIC: 2 µg/mL
[5]
  MIC: 0.25 µg/mL
[6]
  MIC: 0.25 µg/mL
[7]
  MIC: 8 µg/mL
[8]
  MIC: 8 µg/mL
[9]
  MIC: 0.06 µg/mL
[10]
  MIC: 0.125 µg/mL
[11]
  MIC: 2 µg/mL
[12]
  MIC: 0.125 µg/mL
[13]
  MIC: 0.125 µg/mL
[14]
  MIC: 0.125 µg/mL
[15]
  MIC: 2 µg/mL
[16]
  MIC: 2 µg/mL
[17]
  MIC: 0.25 µg/mL
[18]
  MIC: 0.25 µg/mL
[19]
  MIC: 8 µg/mL
[20]
  MIC: 0.25 µg/mL
[21]
  MIC: 0.25 µg/mL
[22]
  MIC: 0.25 µg/mL
[23]
  MIC: 4 µg/mL
[24]
  MIC: 4 µg/mL
[25]
  MIC: 0.25 µg/mL
[26]
  MIC: 0.25 µg/mL
[27]
  MIC: 8 µg/mL
[28]
  MIC: 0.25 µg/mL
[29]
  MIC: 0.125 µg/mL
[30]
  MIC: 0.25 µg/mL
[31]
  MIC: 4 µg/mL
[32]
  MIC: 8 µg/mL
[33]
  MIC: 0.125 µg/mL
[34]
  MIC: 0.125 µg/mL
[35]
  MIC: 1 µg/mL
[36]
  MIC: 0.125 µg/mL
[37]
  MIC: 0.06 µg/mL
[38]
  MIC: 0.06 µg/mL
[39]
  MIC: 2 µg/mL
[40]
  MIC: 1 µg/mL
[41]
  MIC: 0.06 µg/mL
[42]
  MIC: 0.06 µg/mL
[43]
  MIC: 0.5 µg/mL
[44]
  MIC: 0.06 µg/mL
[45]
  MIC: 0.06 µg/mL
[46]
  MIC: 0.06 µg/mL
[47]
  MIC: 2 µg/mL
[48]
  MIC: 2 µg/mL

## CO[C@@]1(NC(=O)Cc2cccs2)C(=O)N2C(C(=O)O)=C(COC(N)=O)CS[C@@H]21 [Cefoxitin]
[1]
  MIC: > 256 µg/mL
[2]
  MIC: > 256 µg/mL
[3]
  MIC: > 256 µg/mL
[4]
  MIC: > 256 µg/mL
[5]
  MIC: > 256 µg/mL
[6]
  MIC: > 256 µg/mL
[7]
  MIC: > 256 µg/mL
[8]
  MIC: > 256 µg/mL
[9]
  MIC: 4 µg/mL
[10]
  MIC: 8 µg/mL
[11]
  MIC: 64 µg/mL
[12]
  MIC: 16 µg/mL
[13]
  MIC: 64 µg/mL
[14]
  MIC: 64 µg/mL
[15]
  MIC: > 256 µg/mL
[16]
  MIC: > 256 µg/mL
[17]
  MIC: 4 µg/mL
[18]
  MIC: 8 µg/mL
[19]
  MIC: 64 µg/mL
[20]
  MIC: 16 µg/mL
[21]
  MIC: 64 µg/mL
[22]
  MIC: 64 µg/mL
[23]
  MIC: > 256 µg/mL
[24]
  MIC: > 256 µg/mL
[25]
  MIC: > 256 µg/mL
[26]
  MIC: > 256 µg/mL
[27]
  MIC: > 256 µg/mL
[28]
  MIC: > 256 µg/mL
[29]
  MIC: > 256 µg/mL
[30]
  MIC: > 256 µg/mL
[31]
  MIC: > 256 µg/mL
[32]
  MIC: > 256 µg/mL
[33]
  MIC: 4 µg/mL
[34]
  MIC: 8 µg/mL
[35]
  MIC: 128 µg/mL
[36]
  MIC: 16 µg/mL
[37]
  MIC: 64 µg/mL
[38]
  MIC: 64 µg/mL
[39]
  MIC: > 256 µg/mL
[40]
  MIC: > 256 µg/mL
[41]
  MIC: 4 µg/mL
[42]
  MIC: 4 µg/mL
[43]
  MIC: 128 µg/mL
[44]
  MIC: 16 µg/mL
[45]
  MIC: 64 µg/mL
[46]
  MIC: 64 µg/mL
[47]
  MIC: > 256 µg/mL
[48]
  MIC: > 256 µg/mL
Production of ESBLs tested alone
  effects on the MIC: no significant (≥4-fold) effects

Reference: patent publication US10760110B2, “Antibiotic testing and screening system” (priority 2017, dated 2020)
